Test results published in patent US6936585B2, “Corticotropin releasing factor 2 receptor agonists” (priority 2002, dated 2005).
Peptide text beside a SMILES is read from it.

Assays:
CRF2R = target: T1, CRF2R (Homo sapiens, UniProt Q13324); test: CRF2R agonist activation (EC50 / Emax), called comparative CRF binding; format: cell-based; conditions: for EC50: read-out: CRF2R EC50; for Emax: read-out: CRF2R Emax
T1 sequence (Q13324 1-411): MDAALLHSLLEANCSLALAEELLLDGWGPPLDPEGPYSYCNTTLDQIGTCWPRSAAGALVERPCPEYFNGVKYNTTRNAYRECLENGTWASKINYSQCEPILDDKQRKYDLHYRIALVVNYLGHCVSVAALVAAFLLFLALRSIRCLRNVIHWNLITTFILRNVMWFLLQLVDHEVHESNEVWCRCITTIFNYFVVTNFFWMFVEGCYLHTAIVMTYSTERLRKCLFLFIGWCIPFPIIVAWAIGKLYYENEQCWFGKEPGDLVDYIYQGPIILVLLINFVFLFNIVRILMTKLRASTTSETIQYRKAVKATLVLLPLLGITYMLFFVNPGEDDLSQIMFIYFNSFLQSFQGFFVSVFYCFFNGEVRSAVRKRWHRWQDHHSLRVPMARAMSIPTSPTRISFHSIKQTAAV
Procedure, shortened: (§1)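 Peptides are tested on cells bearing CRF1R or CRF2R, full length or as ligand-binding-domain constructs coupled to reporters or G proteins. Activation is scored by cAMP rise, measured in lysates or by CRE-reporter output, against vehicle control.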

CRF1R = target: T2, CRF1R (Homo sapiens, UniProt P34998); test: CRF1R agonist activation (EC50 / Emax), called comparative CRF binding; format: cell-based; conditions: for EC50: read-out: CRF1R EC50; for Emax: read-out: CRF1R Emax
T2 sequence (P34998 24-415): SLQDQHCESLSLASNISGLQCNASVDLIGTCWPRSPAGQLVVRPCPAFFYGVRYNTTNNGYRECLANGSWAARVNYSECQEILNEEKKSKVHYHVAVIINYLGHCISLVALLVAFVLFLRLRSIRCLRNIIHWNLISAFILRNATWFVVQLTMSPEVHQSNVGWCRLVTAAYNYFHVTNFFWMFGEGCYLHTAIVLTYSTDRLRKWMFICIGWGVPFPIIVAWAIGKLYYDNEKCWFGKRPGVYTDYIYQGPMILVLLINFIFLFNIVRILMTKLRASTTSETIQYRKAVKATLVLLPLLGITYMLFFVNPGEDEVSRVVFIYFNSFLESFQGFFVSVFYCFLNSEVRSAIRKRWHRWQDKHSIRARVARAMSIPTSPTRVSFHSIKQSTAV
Procedure, shortened: as §1

SMILES	EC50 (CRF2R)	Emax (CRF2R)	EC50 (CRF1R)	Emax (CRF1R)
CC[C@H](C)[C@H](NC(=O)[C@H](CCCNC(=N)N)NC(=O)[C@H](C)NC(=O)[C@H](CC(N)=O)NC(=O)[C@H](CCC(N)=O)NC(=O)[C@H](CCC(=O)O)NC(=O)[C@H](C)NC(=O)[C@H](CCCNC(=N)N)NC(=O)[C@H](CCC(=O)O)NC(=O)[C@H](CCCNC(=N)N)NC(=O)[C@H](CCC(N)=O)NC(=O)[C@H](CO)NC(=O)[C@H](CCC(N)=O)NC(=O)[C@@H](NC(=O)[C@H](CCCCN)NC(=O)[C@H](CCC(=O)O)NC(=O)[C@H](CC(C)C)NC(=O)[C@H](CCC(=O)O)NC(=O)[C@H](CC(C)C)NC(=O)[C@H](CC(C)C)NC(=O)[C@@H](NC(=O)[C@H](CCCNC(=N)N)NC(=O)[C@H](CC(C)C)NC(=O)[C@H](CC(C)C)NC(=O)[C@H](Cc1ccccc1)NC(=O)[C@H](CC(C)C)NC(=O)[C@@H]1CCCN1C(=O)[C@H](CC(C)C)NC(=O)[C@H](CC(=O)O)NC(=O)[C@@H](NC(=O)[C@H](CO)NC(=O)[C@H](CC(C)C)NC(=O)[C@H](CO)NC(=O)[C@@H]1CCCN1C(=O)[C@H](CC(N)=O)NC(=O)[C@@H](N)CC(=O)O)[C@@H](C)CC)[C@@H](C)O)[C@@H](C)O)C(=O)N[C@@H](Cc1ccccc1)C(=O)N[C@@H](C)C(=O)N[C@@H](CCCNC(=N)N)C(=O)N[C@H](C(N)=O)C(C)C [compound 334] (H-DNPSLSIDLPLFLLRTLLELEKTQSQRERAEQNARIFARV-NH2; N-terminus assumed)	13.2 nM	93.5%	≥ 1000 nM	82.6%
CC[C@H](C)[C@H](NC(=O)[C@H](CCCNC(=N)N)NC(=O)[C@H](C)NC(=O)[C@H](CC(N)=O)NC(=O)[C@H](CCC(N)=O)NC(=O)[C@H](CCC(=O)O)NC(=O)[C@H](C)NC(=O)[C@H](CCCNC(=N)N)NC(=O)[C@H](CCC(=O)O)NC(=O)[C@H](CCCNC(=N)N)NC(=O)[C@H](CCC(N)=O)NC(=O)[C@H](CO)NC(=O)[C@H](CCC(N)=O)NC(=O)[C@@H](NC(=O)[C@H](CCCCN)NC(=O)[C@H](CCC(=O)O)NC(=O)[C@H](CC(C)C)NC(=O)[C@H](CCC(=O)O)NC(=O)[C@H](CC(C)C)NC(=O)[C@H](CC(C)C)NC(=O)[C@@H](NC(=O)[C@H](CCCNC(=N)N)NC(=O)[C@H](CC(C)C)NC(=O)[C@H](CC(C)C)NC(=O)[C@@H](NC(=O)[C@H](CC(C)C)NC(=O)[C@@H]1CCCN1C(=O)[C@H](CC(C)C)NC(=O)[C@H](CC(=O)O)NC(=O)[C@@H](NC(=O)[C@H](CO)NC(=O)[C@H](CC(C)C)NC(=O)[C@H](CO)NC(=O)[C@@H]1CCCN1C(=O)[C@H](CC(N)=O)NC(=O)[C@@H](N)CC(=O)O)[C@@H](C)CC)[C@@H](C)CC)[C@@H](C)O)[C@@H](C)O)C(=O)N[C@@H](Cc1ccccc1)C(=O)N[C@@H](C)C(=O)N[C@@H](CCCNC(=N)N)C(=O)N[C@H](C(N)=O)C(C)C [compound 335] (H-DNPSLSIDLPLILLRTLLELEKTQSQRERAEQNARIFARV-NH2; N-terminus assumed)	28 nM	91%	≥ 1000 nM	49.5%
CC[C@H](C)[C@H](NC(=O)[C@H](CCCNC(=N)N)NC(=O)[C@H](C)NC(=O)[C@H](CC(N)=O)NC(=O)[C@H](CCC(N)=O)NC(=O)[C@H](CCC(=O)O)NC(=O)[C@H](C)NC(=O)[C@H](CCCNC(=N)N)NC(=O)[C@H](CCC(=O)O)NC(=O)[C@H](CCCNC(=N)N)NC(=O)[C@H](CCC(N)=O)NC(=O)[C@H](CO)NC(=O)[C@H](CCC(N)=O)NC(=O)[C@@H](NC(=O)[C@H](CCCCN)NC(=O)[C@H](CCC(=O)O)NC(=O)[C@H](CC(C)C)NC(=O)[C@H](CCC(=O)O)NC(=O)[C@H](CC(C)C)NC(=O)[C@H](CC(C)C)NC(=O)[C@@H](NC(=O)[C@H](CCCNC(=N)N)NC(=O)[C@H](CC(C)C)NC(=O)[C@H](CC(C)C)NC(=O)[C@H](Cc1ccccc1)NC(=O)[C@H](CC(C)C)NC(=O)[C@@H]1CCCN1C(=O)[C@H](CC(C)C)NC(=O)[C@H](CC(=O)O)NC(=O)[C@@H](NC(=O)[C@H](CO)NC(=O)[C@H](CC(C)C)NC(=O)[C@H](CO)NC(=O)[C@@H]1CCCN1C(=O)[C@H](CC(N)=O)NC(=O)[C@@H](N)CC(=O)O)[C@@H](C)CC)[C@@H](C)O)[C@@H](C)O)C(=O)N[C@@H](Cc1ccccc1)C(=O)N[C@@H](CC(=O)O)C(=O)N[C@@H](CCCNC(=N)N)C(=O)N[C@H](C(N)=O)C(C)C [compound 336] (H-DNPSLSIDLPLFLLRTLLELEKTQSQRERAEQNARIFDRV-NH2; N-terminus assumed)	–	100%	–	59.9%
CC[C@H](C)[C@H](NC(=O)[C@H](CCCNC(=N)N)NC(=O)[C@H](C)NC(=O)[C@H](CC(N)=O)NC(=O)[C@H](CCC(N)=O)NC(=O)[C@H](CCC(=O)O)NC(=O)[C@H](C)NC(=O)[C@H](CCCNC(=N)N)NC(=O)[C@H](CCC(=O)O)NC(=O)[C@H](CCCNC(=N)N)NC(=O)[C@H](CCC(N)=O)NC(=O)[C@H](CO)NC(=O)[C@H](CCC(N)=O)NC(=O)[C@@H](NC(=O)[C@H](CCCCN)NC(=O)[C@H](CCC(=O)O)NC(=O)[C@H](CC(C)C)NC(=O)[C@H](CCC(=O)O)NC(=O)[C@H](CC(C)C)NC(=O)[C@H](CC(C)C)NC(=O)[C@@H](NC(=O)[C@H](CCCNC(=N)N)NC(=O)[C@H](CC(C)C)NC(=O)[C@H](CC(C)C)NC(=O)[C@@H](NC(=O)[C@H](CC(C)C)NC(=O)[C@@H]1CCCN1C(=O)[C@H](CC(C)C)NC(=O)[C@H](CC(=O)O)NC(=O)[C@@H](NC(=O)[C@H](CO)NC(=O)[C@H](CC(C)C)NC(=O)[C@H](CO)NC(=O)[C@@H]1CCCN1C(=O)[C@H](CC(N)=O)NC(=O)[C@@H](N)CC(=O)O)[C@@H](C)CC)[C@@H](C)CC)[C@@H](C)O)[C@@H](C)O)C(=O)N[C@@H](Cc1ccccc1)C(=O)N[C@@H](CC(=O)O)C(=O)N[C@@H](CCCNC(=N)N)C(=O)N[C@H](C(N)=O)C(C)C [compound 337] (H-DNPSLSIDLPLILLRTLLELEKTQSQRERAEQNARIFDRV-NH2; N-terminus assumed)	23.9 nM	86.7%	≥ 1000 nM	36.5%
CC[C@H](C)[C@H](NC(=O)[C@H](CCCNC(=N)N)NC(=O)[C@H](C)NC(=O)[C@H](CC(N)=O)NC(=O)[C@H](CCC(N)=O)NC(=O)[C@H](CCC(=O)O)NC(=O)[C@H](C)NC(=O)[C@H](CCCNC(=N)N)NC(=O)[C@H](CCC(=O)O)NC(=O)[C@H](CCCNC(=N)N)NC(=O)[C@H](CCC(N)=O)NC(=O)[C@H](CO)NC(=O)[C@H](CCC(N)=O)NC(=O)[C@@H](NC(=O)[C@H](CCCCN)NC(=O)[C@H](CCC(=O)O)NC(=O)[C@H](CC(C)C)NC(=O)[C@H](CCC(=O)O)NC(=O)[C@H](CC(C)C)NC(=O)[C@H](CC(C)C)NC(=O)[C@@H](NC(=O)[C@H](CCCNC(=N)N)NC(=O)[C@H](CC(C)C)NC(=O)[C@H](CC(C)C)NC(=O)[C@H](CC(C)C)NC(=O)[C@H](CC(C)C)NC(=O)[C@@H]1CCCN1C(=O)[C@H](CC(C)C)NC(=O)[C@H](CC(=O)O)NC(=O)[C@@H](NC(=O)[C@H](CO)NC(=O)[C@H](CC(C)C)NC(=O)[C@H](CO)NC(=O)[C@@H]1CCCN1C(=O)[C@H](CC(N)=O)NC(=O)[C@@H](N)CC(=O)O)[C@@H](C)CC)[C@@H](C)O)[C@@H](C)O)C(=O)N[C@@H](Cc1ccccc1)C(=O)N[C@@H](CC(=O)O)C(=O)N[C@@H](CCCNC(=N)N)C(=O)N[C@H](C(N)=O)C(C)C [compound 338] (H-DNPSLSIDLPLLLLRTLLELEKTQSQRERAEQNARIFDRV-NH2; N-terminus assumed)	–	77.5%	–	41.1%
CC[C@H](C)[C@H](NC(=O)[C@H](C)NC(=O)[C@H](CC(N)=O)NC(=O)[C@H](CCC(N)=O)NC(=O)[C@H](CCC(=O)O)NC(=O)[C@H](C)NC(=O)[C@H](CCCNC(=N)N)NC(=O)[C@H](CCC(=O)O)NC(=O)[C@H](CCCNC(=N)N)NC(=O)[C@H](CCC(N)=O)NC(=O)[C@H](CO)NC(=O)[C@H](CCC(N)=O)NC(=O)[C@@H](NC(=O)[C@H](CCCNC(=N)N)NC(=O)[C@H](C)NC(=O)[C@H](CC(C)C)NC(=O)[C@H](CCC(=O)O)NC(=O)[C@H](CC(C)C)NC(=O)[C@H](CC(C)C)NC(=O)[C@@H](NC(=O)[C@H](CCCNC(=N)N)NC(=O)[C@H](CC(C)C)NC(=O)[C@H](CC(C)C)NC(=O)[C@H](Cc1ccc(O)cc1)NC(=O)[C@H](CCC(N)=O)NC(=O)[C@@H]1CCCN1C(=O)[C@H](CC(C)C)NC(=O)[C@H](CC(=O)O)NC(=O)[C@@H](NC(=O)[C@H](CO)NC(=O)[C@H](CC(C)C)NC(=O)[C@H](CO)NC(=O)[C@@H]1CCCN1C(=O)[C@H](CC(N)=O)NC(=O)[C@@H](N)CC(=O)O)[C@@H](C)CC)[C@@H](C)O)[C@@H](C)O)C(=O)N[C@H](C(=O)N[C@@H](Cc1ccccc1)C(=O)N[C@@H](C)C(=O)N[C@@H](CO)C(=O)N[C@H](C(N)=O)C(C)C)[C@@H](C)CC [compound 339] (H-DNPSLSIDLPQYLLRTLLELARTQSQRERAEQNAIIFASV-NH2)	–	47.9%	–	13.2%
